Laboratory results from PMC11641657, “Innovative Approaches to Fucoxanthin Delivery: Characterization and Bioavailability of Solid Lipid Nanoparticles with Eco-Friendly Ingredients and Enteric Coating” (International Journal of Molecular Sciences, 2024).

What was measured:
[1] = Dispersion in ultra-pure water; type: physicochemical; conditions: visual
[2] = In vivo pharmacokinetics test, oral dosing, FNOH in plasma by LC-MS/MS; conditions: after oral 10 mg/kg, parent FN
Procedure: The qualification and quantification of FN and FNOH in plasma samples was conducted using Nexera LC-40 (Shimadzu UPLC, Kyoto, Japan) coupled with AB 6500+ Q-trap mass spectrometry (ABSCIEX, Framinham, MA, USA), which was equipped with electrospray ionization (ESI). The mobile phase was composed of H2O (A: 0.1% formic acid and acetonitrile (B, 0.1% formic acid; A:B = 10:90, v/v) at a flow rate of 0.35 mL/min, and the injection volume was 5 µL. The analysis utilized a Kinetex EVO C18 column (2.1 mm × 100 mm, 2.6 μm) Phenomenex, Torrance, CA, USA), which was maintained at a temperature of 25 °C. The detection of the compounds (Table 6) was performed in positive ion mode under the following conditions: curtain gas at 35.0 L/h, collision gas medium, ion spray voltage at 5000 V, temperature at 400 °C, and ion source gases 1 and 2 both at 55 L/h. […] The data was acquired using AB Analyst 1.6.1 software (ABSCIEX, USA).
They were provided with standard rat chow and water and libitum throughout the study. The rats were acclimatized to the laboratory environment for 7 days prior to the start of the experiment to minimize stress-induced effects. […]
The plasma drug concentration data were fitted using a non-compartmental model, and pharmacokinetic parameters were calculated via Phoenix WinNonlin 8.1 (Certara Corporation, Princeton, NJ, USA).

[3] = Morphology by TEM and SEM; type: physicochemical; conditions: in aqueous medium
Procedure: The samples were analyzed by means of a transmission electron microscopy (TEM) (Thermo Scientific Talos F200C) operating at 80 KV. For TEM analysis, the samples were placed on copper grids XP-UC300 (Shanghai X-Pivot Optoelectronic Technology Co., Ltd., Shanghai, China). Scanning Electron Microscopy (SEM) was used to determine the structure of the lyophilized FN–SLN. FN–SLN was dispersed in water and spread on a double-sided conducting adhesive tape, then was pasted on a metallic stub. After drying, it was coated ([…]) with gold in a sputter coating unit for […] using an accelerated voltage of 15 KeV.

[4] = design: method as in PMID 11694619; conditions: one of the lowest among studied carotenoids; cited from earlier work
[5] = In vitro release study (dialysis cassette, SGF then SIF); type: physicochemical; conditions: 2 h SGF then SIF, 37 °C
Procedure: A 3 mL dispersion of solid lipid nanoparticles (SLNs) and fucoxanthin (FN) crystal at a concentration of 1 mg/mL/FN was placed in separate dialysis cassettes (Slide-A-Lyzer, Thermo Fisher Scientific, USA) with a molecular weight cutoff (MWCO) of 20 KDa. Each cassette was then immersed in 120 mL of release medium, consisting of 60% ethanol and 40% SGF, and maintained at 37 °C with a stirring speed of 120 rpm for the first 2 h. An appropriate amount of ethanol is necessary to be added to improve the release of FN in a water-based environment. Two hours later, SGF was replaced with SIF. Samples of 10 µL were periodically withdrawn from the internal compartment of the dialysis cassette, using methanol for extraction and dilution to determine the concentration of fucoxanthin. The remaining FN% was calculated with the following equation:(3) Releasing FX%=(1−Mt/M0)×100% where: M0 is the initial amount of FN, and Mt is the amount of FN calculated at a given incubation time.

[6] = In vitro dissolution test with enteric-coated capsule (SGF then SIF); type: physicochemical
Procedure: In this study, 7.8 mg of FN–SLNs and FN crystals were encapsulated in separate enteric-coated capsules. The capsules were placed in a glass bottle containing 2 mL of SGF and maintained at 37 °C, stirring at 120 rpm for the first 2 h. During this period, 100 µL samples were collected at predetermined intervals to assess the dissolution profiles of both formulations. Each time a sample was taken, 100 µL of the corresponding fluid was added to maintain the total volume. […] Following this, the SGF was replaced with 2 mL of SIF, and sampling continued at specified intervals. After each sampling, the collected solutions were centrifuged for 2 min (5000 rpm, 4 °C) to separate any undissolved particles. The supernatants were then extracted using methanol, allowing for the quantification of FN using high-performance liquid chromatography (HPLC).

CC(=O)O[C@H]1CC(C)(C)C(=C=C/C(C)=C/C=C/C(C)=C/C=C/C=C(C)/C=C/C=C(\C)C(=O)C[C@@]23O[C@]2(C)C[C@@H](O)CC3(C)C)[C@](C)(O)C1 [FN, Fucoxanthin]
Dispersion in water [1]: inadequate | Concentration of FN in rat plasma [2]: below the lowest limit of quantitation | Overall average length of crystals [3]: exceeding 5 µm | Bioavailability [4]: ~ 50 pmol/mg protein | Highest release rate in SGF and SIF [5]: 2.88% | Release rate throughout the 8-h observation period [6]: consistently low release rate
